Results as given in paper PMC2063322, “Phase I trial and pharmacokinetics of the tubulin inhibitor 1069C85--a synthetic agent binding at the colchicine site designed to overcome multidrug resistance” (British Journal of Cancer, 1997).
Read-outs that look alike come from different tables or passages of the source.

What was measured:
[1] = system: rodents; set-up: method as in data on file, Cancer Research Campaign, 1993; settings: ref data on file, Cancer Research Campaign, 1993; cited from earlier work
[2] = Aqueous solubility; type: physicochemical
[3] = Stability of 1069C85 in orange juice; settings: suspension mixed with orange juice
Description: (§1) British Joumal of Cancer (1997) 75(4), 608-613 ? […] A phase I study was performed using a single oral dose every 3 weeks, administered as a suspension reconstituted in 0.1% Tween 80 and 0.9% saline. The starting dose was 2.8 mg m-2, and dose doubling was permitted until the area under curve (AUC) was ?40% of that at the mouse LD10; thereafter, a modified Fibonacci scheme was used. […] Keywords: tubulin; multidrug resistance; neurotoxicity The tubulin-binding agent 1069C85 was developed from a struc- ture activity investigation of tubulin inhibitors binding at the colchicine site on tubulin. […] No studies were performed using human tumour xenografts. […] METHODS Formulation and drug administration A formulation was developed at the Cancer Research Campaign Formulation Unit. The drug was dispensed into vials as a dry powder and reconstituted as a fine suspension by administration of 0.9% saline containing 0.1% Tween 80 (polysorbate) with vigorous mixing. Immediately before oral administration, the drug suspension was mixed with orange juice both to disguise any possible unpleasant taste and to help ensure complete ingestion.

[4] = set-up: method as in data on file Glaxo/Wellcome, 1990; settings: monkey, p.o.; ref data on file Glaxo/Wellcome, 1990; cited from earlier work
[5] = dog, cited from earlier work
[6] = system: dogs; set-up: method as in Data on file, Glaxo/Wellcome, 1990; settings: 20 mg m-2; ref Data on file, Glaxo/Wellcome, 1990; cited from earlier work
[7] = cited from earlier work
[8] = Tumour response assessment in phase I patients; type: in vivo, human; settings: 39 patients, 2.8-200 mg m-2
Description: as §1

[9] = set-up: method as in Raynaud et al, 1994; settings: mouse, estimated; ref Raynaud et al, 1994; cited from earlier work
[10] = system: mammalian tubulin; set-up: method as in Hodgson et al 1992; Hodgson, 1994; settings: at concentrations cytotoxic to P388 cells, ref Hodgson et al 1992, 1994; cited from earlier work
[11] = system: murine tumour cell lines with acquired resistance to natural anti-cancer products; settings: acquired resistance to a variety of natural anti-cancer products, ref Hodgson et al, 1992, 1994; cited from earlier work
[12] = system: rats; set-up: method as in data on file, Cancer Research Campaign, 1993; settings: 14.3 mg m-2 p.o. (one-tenth mouse LD10), daily x 5 for 4 weeks, rat; ref data on file, Cancer Research Campaign, 1993; cited from earlier work
[13] = system: human tumour cell lines; settings: ref Raynaud et al, 1994; cited from earlier work
[14] = system: murine tumours; settings: cited from earlier work
[15] = system: mice; set-up: method as in data on file, Cancer Research Campaign, 1993; settings: ref data on file, Cancer Research Campaign, 1993, cited from earlier work
[16] = Phase I toxicity graded by Common Toxicity Criteria
Description: as §1

[17] = grade 3 patient, 200 mg m-2 non-micronized
[18] = grade 4 neurotoxicity patient, 100 mg m-2 micronized
[19] = patient no. 39, 50 mg m-2 micronized

Structure (SMILES): COC(=O)Nc1cn2nc(OCc3cc(OC)c(OC)c(OC)c3)ccc2n1 [1069C85]
- dose limiting toxicities [1]: myelosuppression and gastrointestinal damage
- aqueous solubility [2]: extremely poor
- effect of orange juice on the stability [3]: no effect
- plasma elimination half-life following oral administration [4]: ~2 h
- oral bioavailability ([5]; i.v. formulation dimethyl isosorbide, ref data on file, Glaxo/Wellcome 1990): 7%
- plasma elimination half-life following oral administration ([5]; p.o., ref Data on file 1990): approximately 16 h
- toxicity observed in dogs [6]: fatal toxicity
- increase of bioavailability with micronized drug ([7]; mice, preclinical, ref F I Raynaud, personal communication): two-threefold
- oral bioavailability ([7]; mouse, i.v. vehicle DMSO/saline, ref Raynaud et al, 1994): 20%
- plasma elimination half-life following oral administration ([7]; mouse, p.o., ref Raynaud et al, 1994): ~8 h
- objective responses [8]: no objective responses
- Protein binding [9]: 85-99%
- inhibition of tubulin polymerization [10]: potent inhibition
- activity against resistant murine tumour cell lines [11]: retained activity
- animals in which repeat dosing proved fatal [12]: seven out of ten
- activity in resistant human tumour cell lines [13]: confirmed these findings
- activity of the 20 mg kg-1 oral dose ([14]; 20 mg kg-1, oral, mouse): active dose
- anti-tumour activity in vivo ([14]; oral route, a variety of murine tumours): confirmed
- LD10, single dose intraperitoneally ([15]; mice, i.p.): 39.6 mg m-2
- LD10, single oral dose ([15]; mice, p.o.): 142.2 mg m-2
- repeat dose that proved to be fatal ([15]; mouse, i.p., daily x 5 for 4 weeks): above 3.9 mg m-2
- incidence of central neurotoxicity (mainly mild sedation) ([16]; 200 mg m-2, non-micronized): four of five
- duration of neurotoxic symptoms [16, 17]: 7 days
- onset of neurotoxic symptoms after dosing [16, 17]: 48 h
- alopecia grade [16, 18]: 2
- neutropenia grade [16, 18]: 3
- onset of neurotoxicity ([16]; grade 4 patient, 100 mg m-2 micronized): approximately 48 h
- severe central neurotoxicity, maximum grade ([16]; micronized formulation, doses of 50-100 mg m-2): ≤ 4
- toxicities observed ([16]; micronized, 25 or 35.8 mg m-2): No significant toxicities
- nausea and vomiting grade (only toxicities observed) ([16]; non-micronized, 2.8 to 22.4 mg m-2): 1-2
- antiproliferative toxicities ([16]; original formulation, 2.8-200 mg m-2): no antiproliferative toxicities
- day of death attributed to 1069C85 [16, 19]: 8 days
- thrombocytopenia grade [16, 19]: 3
- vomiting and diarrhoea grade [16, 19]: 2
- neutropenia grade ([16]; patient no. 39, 50 mg m-2 micronized, onset day 6): 4
- Cmax at which severe neurotoxicity was not observed ([16]; patients): < 100 ng ml'
- peak plasma concentration above which CNS neurotoxicity was severe ([16]; patients): above 100 tg 1-'
- Neurotoxicity (CTC grade) ([16]; single patient (no. 39), 50 mg m-2 micronized, agitation, confusion and visual hallucinations, days 2-6): 3
- Neurotoxicity (CTC grade) ([16]; single patient, 100 mg m-2 micronized, ataxia, confusion, hallucinations, coma, days 2-7): 4
- Neurotoxicity (CTC grade) ([16]; single patient, 100 mg m-2 micronized, vivid dreams, disturbed sleep, days 3-6): 1
- Neurotoxicity (CTC grade) ([16]; single patient, 200 mg m-2 non-micronized, ataxia, confusion, disorientation, days 2-6): 3
- Neurotoxicity (CTC grade) ([16]; single patient, 200 mg m-2 non-micronized, visual disturbance, flashing lights): 1
